The values that follow are results of earlier work, collected in patent US20110250132A1, “LIPOIC ACID METABOLITE: USEFUL FOR DRUG CARRIER, NANOPARTICLE CONJUGATE, IMAGING AND HYPERTHERMIA THERAPY” (priority 2010, published 2011).

The conditions of data set [1]: reduced form with two —SH groups.
For data set [2] the following is noted: accumulates in all neuronal cell types.
For data set [3], the system named is insulin-resistant rat skeletal muscle.
A further data set has as its system cataracts. The conditions noted are these: rats.

With `O=C(O)CCCC[C@@H](S)CCS` (racemic) [DHLA, dihydrolipoic acid], the oxidation potential in data set [1] is on record as −0.29 v.
Regarding `O=C(O)CCCCC1CCSS1` (stereo not drawn) [Alpha-lipoic acid], in the data set with lens epithelial cells, the preventing iron accumulation result is “beneficial effects”. In addition, the blood-brain barrier crossing entry in data set [2] is “readily crosses the blood-brain barrier”.
With `O=C(O)CCCC[C@@H]1CCSS1` [R-alpha-lipoic acid], the “enhancing insulin-stimulated glucose transport and metabolism” value in data set [3] is “more effective than S-alpha-lipoic acid”. In addition, in the data set with cataracts, the preventing cataracts entry is “more effective than racemic alpha-lipoic acid and S-alpha-lipoic acid”.
